# Tests used:
# [1] = test system: microbial consortium from wastewater sludge samples; conditions: 1-butanol 1.6%, chemostat, 37° C.
# [2] = test system: most microorganisms described in the art; conditions: liquid medium at 37° C.; cited from earlier work
# [3] = test system: butanol tolerant Lactobacillus strains; assay type: cell-based; conditions: S20 agar or TSA agar, 37° C., 24 to 72 h
# Method: The square-well microtiter plate was sealed with an adhesive cover (Beckman Coulter Inc.; Catalog No. 538619) and incubated at 37° C. with shaking for up to 72 h. The square-well microtiter plate was used to make a master plate by dispensing 200 μL of culture from each square well into a corresponding well in a “U-bottom” microtiter plate (VWR Scientific Products, West Chester, Pa.; Catalog No. 62409-052).
substance,measurement,setting,value
1-butanol,cell density after continued incubation,[1]; after adaptation,2.3 OD600
same,cell density after increasing 1-butanol in feed,[1]; initial decrease,less than 1.5 OD600
same,concentration at which growth is totally inhibited,[2],less than 2.0 % w/v
same,1-butanol concentration in agar medium on which isolates grew,[3],3%

# Source: patent US7541173B2, “Solvent tolerant microorganisms and methods of isolation” (E.I. du Pont de Nemours and Company, priority 2006, dated 2009)
